# Several values for one entry are separate records, joined by “and”; a condition that tells them apart may be missing. Identical values can stand only once. Like-named read-outs stand apart in the source and are kept apart here.
# How the values were obtained:
# adipocytes = system: adipocytes; parameters: method as in Feng et al, 2019; conditions: ref Feng et al, 2019; cited from earlier work
# [1] = Pharmacokinetics analysis, TA muscle (LC-MS/MS); type: in vivo, mouse; conditions: for concentration at 0.5 h / concentration at 1 h / concentration at 1.5 h / concentration at 2 h / concentration at 6 h: male, C57BL/6J, mouse, tibialis anterior (TA) muscle, intraperitoneal, 5 mg/kg
# Protocol: Assessment of BML-260 pharmacokinetics (PK) was carried out by the company Chaon, Yongin-si, Republic of Korea. BML-260 was administered intraperitoneally at a dose of 5 mg/kg in an injection volume of 10 mL/kg. A total of 21 6-week-old male C57BL/6J mice were divided into two groups as follows: 1) PK (plasma) group (3 mice) and 2) PK (TA muscle) group (18 mice across 6 time points).
# For the PK (plasma) group, blood samples were collected at 0.5, 1, 1.5, 2, 6, 12, and 24 h after administration, using orbital sinus collection. Blood was centrifuged to obtain plasma that was then stored at −80 °C. For the PK (TA muscle) group, mice were euthanized at 0.5, 1, 1.5, 2, 6, and 12 h post-administration. The TA muscle was weighed and stored at −80 °C.
# BML-260 levels in plasma and tissue samples were analyzed with liquid chromatography-tandem mass spectrometry (LC-MS/MS) using an Agilent 1200 HPLC system coupled with an AB Sciex 4000 QTrap MS/MS (Agilent Technologies, CA, USA). Quantification limits were determined based on a signal-to-noise ratio greater than 10, with precision below 20% and accuracy between 80% and 120%.
# C2C12 myotubes [2] = test: Western blotting of C2C12 myotubes; type: cell-based, mouse
# Protocol: C2C12 murine skeletal muscle myoblasts were purchased from Koram Biotech Corp. (Seoul, Republic of Korea). Prior to experiments, mycoplasma contamination was eliminated using the MycoXpert Mycoplasma Removal Reagent (MYX-B, CAPRICORN) following the manufacturer’s protocol. To ensure complete removal, all cells were passaged three times after treatment before being used in subsequent experiments. No STR profiling was recently undertaken. Myoblasts were cultured in growth media (GM), containing Dulbecco’s modified Eagle’s medium (DMEM), 10% fetal bovine serum, and 1% penicillin and streptomycin (PenStrep). C2C12 myoblasts were differentiated into myotubes at more than 80% confluence by culture in differentiation media (DM), containing DMEM supplemented with 2% horse serum and PenStrep, for 96 h. To induce atrophy, the myotubes were treated with DM plus 10 μM Dex for 24 h. BML-260 and SP600125 were purchased from Santa Cruz Biotechnology, TX, USA (cat. no. sc-223822 and sc-200635).
# Western blotting was carried out using the previously published protocol (Lee et al, [2020]). The NIH imaging software Image J 64 was used for densitometry analysis of the gel bands. The primary and secondary antibodies used in this study are shown in the reagent and tools table. Chemiluminescence was used to detect the secondary antibody. […]
# C2C12 myotubes [3] = test: SUnSET assay of protein synthesis; type: cell-based, mouse; conditions: 10 μM Dex 24 h, 12.5 μM BML-260
# Protocol: The surface sensing of translation (SUnSET) assay was used to measured protein synthesis, in accordance with the published protocol (Vinel et al, [2018]). In brief, 1 μg/mL puromycin was added to the myotube cultures and cell lysates were then harvested 10 min later. Western blotting was carried out using an anti-puromycin 12D10 antibody (MABE343; Millipore).
# [4] = 5 mg/kg IP, as read by referee #2
structure (smiles),measurement,setting,value
O=C(O)c1ccc(N2C(=O)C(=Cc3ccccc3)SC2=S)cc1 (stereo in doubt) [BML-260],expression of uncoupling protein-1 (UCP-1),adipocytes,upregulates
same,Muscle Conc.,"[1]; 5 mg/kg (IP), 0.5 h, TA muscle, dilution factor 4, individual animals",0.350 µg/g and 0.280 µg/g
same,Muscle Conc. before dilution factor,"[1]; 5 mg/kg (IP), 0.5 h, TA muscle, individual animals",87.62 ng/mL and 70.09 ng/mL
same,Muscle Conc.,"[1]; 5 mg/kg (IP), 1 h, TA muscle, dilution factor 4, individual animals",0.335 µg/g and 0.367 µg/g
same,Muscle Conc. before dilution factor,"[1]; 5 mg/kg (IP), 1 h, TA muscle, individual animals",83.78 ng/mL and 91.76 ng/mL
same,Muscle Conc.,"[1]; 5 mg/kg (IP), 1.5 h, TA muscle, dilution factor 4, individual animals",0.220 µg/g and 0.191 µg/g
same,Muscle Conc. before dilution factor,"[1]; 5 mg/kg (IP), 1.5 h, TA muscle, individual animals",54.90 ng/mL and 47.79 ng/mL
same,Muscle Conc.,"[1]; 5 mg/kg (IP), 2 h, TA muscle, dilution factor 4, individual animals",0.165 µg/g and 0.133 µg/g
same,Muscle Conc. before dilution factor,"[1]; 5 mg/kg (IP), 2 h, TA muscle, individual animals",41.20 ng/mL and 33.33 ng/mL
same,Muscle Conc.,"[1]; 5 mg/kg (IP), 6 h, TA muscle, dilution factor 4, individual animals",0.013 µg/g and 0.024 µg/g
same,Muscle Conc. before dilution factor,"[1]; 5 mg/kg (IP), 6 h, TA muscle, individual animals",3.25 ng/mL and 5.89 ng/mL
same,Muscle Conc.,"[1]; 5 mg/kg (IP), 12 h, TA muscle, dilution factor 4, individual animals",BQL
same,Muscle Conc. before dilution factor,"[1]; 5 mg/kg (IP), 12 h, TA muscle, individual animals",1.21 ng/mL and 0.79 ng/mL and 1.75 ng/mL
same,"Muscle Conc., Mean","[1]; 5 mg/kg (IP), 12 h, TA muscle, n = 3",BQL
same,delay until peak detection in skeletal muscle (tibialis anterior),[1]; 5 mg/kg IP,approximately 20 min
same,skeletal muscle level relative to that needed for enzyme inhibition,[1]; 5 mg/kg IP,may not reach levels where it can function as an enzymatic inhibitor
same,peak muscle level,[1]; [4],~ 0.35 ug/g tissue
same,time of peak muscle level,[1]; [4],~ 1 hour
same,half maximal inhibitor concentration in muscle,[1]; crude estimate of referee #2 with 1 g tissue = 1 ml,~ 0.5 uM
same,concentration at 0.5 h,"[1]; 5 mg/kg (IP), 0.5 h, TA muscle, dilution factor 4, individual animals, read-out: Muscle Conc.",338 ng/g
same,concentration at 0.5 h,"[1]; 5 mg/kg (IP), 0.5 h, TA muscle, individual animals, read-out: Muscle Conc. before dilution factor",84.6 ng/mL
same,concentration at 0.5 h,"[1]; 5 mg/kg (IP), 0.5 h, TA muscle, n = 3, read-out: Muscle Conc., Mean",323 ng/g
same,concentration at 1 h,"[1]; 5 mg/kg (IP), 1 h, TA muscle, dilution factor 4, individual animals, read-out: Muscle Conc.",347 ng/g
same,concentration at 1 h,"[1]; 5 mg/kg (IP), 1 h, TA muscle, individual animals, read-out: Muscle Conc. before dilution factor",86.7 ng/mL
same,concentration at 1 h,"[1]; 5 mg/kg (IP), 1 h, TA muscle, n = 3, read-out: Muscle Conc., Mean",350 ng/g
same,concentration at 1.5 h,"[1]; 5 mg/kg (IP), 1.5 h, TA muscle, dilution factor 4, individual animals, read-out: Muscle Conc.",231 ng/g
same,concentration at 1.5 h,"[1]; 5 mg/kg (IP), 1.5 h, TA muscle, individual animals, read-out: Muscle Conc. before dilution factor",57.7 ng/mL
same,concentration at 1.5 h,"[1]; 5 mg/kg (IP), 1.5 h, TA muscle, n = 3, read-out: Muscle Conc., Mean",214 ng/g
same,concentration at 2 h,"[1]; 5 mg/kg (IP), 2 h, TA muscle, dilution factor 4, individual animals, read-out: Muscle Conc.",166 ng/g
same,concentration at 2 h,"[1]; 5 mg/kg (IP), 2 h, TA muscle, individual animals, read-out: Muscle Conc. before dilution factor",41.5 ng/mL
same,concentration at 2 h,"[1]; 5 mg/kg (IP), 2 h, TA muscle, n = 3, read-out: Muscle Conc., Mean",155 ng/g
same,concentration at 6 h,"[1]; 5 mg/kg (IP), 6 h, TA muscle, dilution factor 4, individual animals, read-out: Muscle Conc.",16 ng/g
same,concentration at 6 h,"[1]; 5 mg/kg (IP), 6 h, TA muscle, individual animals, read-out: Muscle Conc. before dilution factor",3.9 ng/mL
same,concentration at 6 h,"[1]; 5 mg/kg (IP), 6 h, TA muscle, n = 3, read-out: Muscle Conc., Mean",17 ng/g
same,"atrogin-1, MuRF-1 and DUSP22 levels, western blot",C2C12 myotubes [2]; Dex-treated myotubes,reduced
same,Akt activity,C2C12 myotubes [2]; summary statement of the discussion,not upregulated
same,protein synthesis (puromycin incorporation),C2C12 myotubes [3],prevented the reduction in protein synthesis
